Values quoted from earlier work in US20240047033A1, “MULTI-OMICS METHODS FOR PRECISION MEDICINE” (UNIVERSITY OF PITTSBURGH-OF THE COMMONWEALTH SYSTEM OF …, priority 2020, published 2024).

Tested on: non-small cell lung cancer (NSCLC) tumors
Conditions: pretreated chemorefractory NSCLC patients, Erlotinib monotherapy, 28 patients

## C#Cc1cccc(Nc2ncnc3cc(OCCOC)c(OCCOC)cc23)c1 [Erlotinib]
  time within which all treated patients progressed: six
